Results reported in patent publication US20230067929A1, “HETEROCYCLIC DERIVATIVES, PHARMACEUTICAL COMPOSITIONS AND THEIR USE IN THE TREATMENT, AMELIORATION OR PREVENTION OF CANCER” (Tolremo Therapeutics AG, priority 2018, published 2023).

test system: A375 cells; test: A375 cell immunofluorescence assay (with 1 μM S1152 and 0.5 μM S1008), EC50; format: cell-based; conditions: 1 μM S1152 + 0.5 μM S1008, one day, ratio FL2/FL3 staining (sc-365823 antibody)
Method in brief: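 A375 cells were treated for 1 day with 1 μM S1152, 0.5 μM S1008 and compound dose ranges in DMEM/10% FCS/2 mM glutamine, then fixed, permeabilized and immunostained (secondary antibody 2 μg/ml). FL2 (500-530 nm) signal was measured in propidium iodide-defined objects (FL3, 565-600 nm). The normalized ln FL2/ln FL3 ratio was log-transformed, and EC50 came from a 4-parameter fit.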

EC50 [µM]	Compound
> 10	CCC(=O)N1CCCC(c2nc(Nc3cccc(F)c3)cc(-c3ccc(C(=O)NC)nc3)n2)C1 (stereo not drawn)
1 to 10	CCC(=O)N1CCCC(c2nc(Nc3cccc(F)c3)cc(-c3cncc(C(=O)NC)c3)n2)C1 (stereo not drawn)
1 to 10	CCC(=O)N1CCCC(c2nc(Nc3cccc(F)c3)cc(-c3cnccc3OC)n2)C1 (stereo not drawn)
1 to 10	CCC(=O)N1CCCC(c2nc(Nc3cccc(F)c3)cc(-c3ccc(NC(C)=O)cc3)n2)C1 (stereo not drawn)
1 to 10	CCC(=O)N1CCCC(c2nc(Nc3cccc(F)c3)cc(-c3sc(C(C)C)nc3C)n2)C1 (stereo not drawn)
1 to 10	CCC(=O)N1CCCC(c2nc(Nc3cccc(F)c3)cc(-c3csc4cnccc34)n2)C1 (stereo not drawn)
> 10	CCC(=O)N1CCCC(c2nc(Nc3cccc(F)c3)cc(-c3cncc4[nH]ccc34)n2)C1 (stereo not drawn)
1 to 10	CCC(=O)N1CCCC(c2nc(Nc3cccc(F)c3)cc(-c3ccc4scnc4c3)n2)C1 (stereo not drawn)
> 10	CCC(=O)N1CCCC(c2nc(Nc3cccc(F)c3)cc(-c3cnn(C4CCC4)c3)n2)C1 (stereo not drawn)
> 10	CC(=O)N1CCCC(c2nc(Nc3cccnn3)cc(-c3cccnc3)n2)C1 (stereo not drawn)
< 1	CC(=O)N1C[C@H](c2nc(Nc3ccncc3)cc(-c3cccnc3)n2)CC[C@@H]1C
> 10	CC(=O)N1CCCC(c2nc(Nc3cnccn3)cc(-c3cccnc3)n2)C1 (stereo not drawn)
< 1	CC(=O)N1C[C@H](c2nc(Nc3cccnc3)cc(-c3cccnc3)n2)CC[C@@H]1C
> 10	CC(=O)N1CCCC(c2nc(NC3CCCCC3)cc(-c3cccnc3)n2)C1 (stereo not drawn)
> 10	CC(=O)N1CCCC(c2nc(NC3CCCC3)cc(-c3cccnc3)n2)C1 (stereo not drawn)
> 10	CC(=O)N1CCCC(c2nc(NC34CC(C3)C4)cc(-c3cccnc3)n2)C1 (stereo not drawn)
> 10	CC(=O)N1CCCC(c2nc(Nc3cccc(F)c3)cc(N3CCOCC3)n2)C1 (stereo not drawn)
1 to 10	CC(=O)N1CCCC(c2nc(Nc3cccc(F)c3)cc(-c3cncc4[nH]ccc34)n2)C1 (stereo not drawn) [drawing 575]
1 to 10	CC(=O)N1CC(F)CC(c2nc(Nc3cccc(F)c3)cc(-c3cccnc3)n2)C1 (stereo not drawn) [drawing 702]
1 to 10	CC(=O)N1CCC(C)C(c2nc(Nc3cccc(F)c3)cc(-c3cccnc3)n2)C1 (stereo not drawn) [drawing 720]

More lines, now with the values behind:

Compound	EC50 [µM]
CCC(=O)N1CCCC(c2nc(Nc3cccc(F)c3)cc(-c3ccncc3)n2)C1 (stereo not drawn)	> 10
CCC(=O)N1CCCC(c2nc(Nc3cccc(F)c3)cc(-c3cncc(F)c3)n2)C1 (stereo not drawn)	> 10
CCC(=O)N1CCCC(c2nc(Nc3cccc(F)c3)cc(-c3ccc(OC)cc3)n2)C1 (stereo not drawn)	1 to 10
CCC(=O)N1CCCC(c2nc(Nc3cccc(F)c3)cc(-c3ccc(C(=O)NC)cc3)n2)C1 (stereo not drawn)	1 to 10
CCC(=O)N1CCCC(c2nc(Nc3cccc(F)c3)cc(-c3cccc(C(=O)NC)c3)n2)C1 (stereo not drawn)	> 10
CCC(=O)N1CCCC(c2nc(Nc3cccc(F)c3)cc(-c3cccc(NC(C)=O)c3)n2)C1 (stereo not drawn)	1 to 10
CCC(=O)N1CCCC(c2nc(Nc3cccc(F)c3)cc(-c3ccccc3NC(C)=O)n2)C1 (stereo not drawn)	> 10
CCC(=O)N1CCCC(c2nc(Nc3cccc(F)c3)cc(-c3ccccc3OC)n2)C1 (stereo not drawn)	> 10
CCC(=O)N1CCCC(c2nc(Nc3cccc(F)c3)cc(-c3cn(C)nc3C)n2)C1 (stereo not drawn)	> 10
CCC(=O)N1CCCC(c2nc(Nc3cccc(F)c3)cc(-c3cnn(CC(F)(F)F)c3)n2)C1 (stereo not drawn)	1 to 10
CCC(=O)N1CCCC(c2nc(Nc3cccc(F)c3)cc(-c3cccc(-c4nnc(C)o4)c3)n2)C1 (stereo not drawn)	1 to 10
CCC(=O)N1CCCC(c2nc(Nc3cccc(F)c3)cc(-c3cccc(C#N)c3)n2)C1 (stereo not drawn)	1 to 10
CC(=O)N1C[C@H](c2nc(Nc3cncc(C)c3)cc(-c3cncc(C4COC4)c3)n2)CC[C@@H]1C	< 1
CC(=O)N1CCCC(c2nc(Nc3cncc(F)c3)cc(-c3cccnc3)n2)C1 (stereo not drawn)	1 to 10
CC(=O)N1CCCC(c2nc(Nc3ccnnc3)cc(-c3cccnc3)n2)C1 (stereo not drawn)	> 10
CC(=O)N1CCCC(c2nc(Nc3ccnc(C)c3)cc(-c3cccnc3)n2)C1 (stereo not drawn)	1 to 10
CC(=O)N1CCCC(c2nc(NC34CC(C3)C4)cc(-c3cncc4[nH]ccc34)n2)C1 (stereo not drawn)	1 to 10
CC(=O)N1CCCC(c2nc(NC34CC(C3)C4)cc(-c3cncnc3)n2)C1 (stereo not drawn)	> 10
CC(=O)N1C[C@H](c2nc(Nc3cccc(C)c3)cc(-c3cncc4[nH]ncc34)n2)CC[C@@H]1C	1 to 10
CC(=O)N1CCCC(c2nc(Nc3cccc(C)c3)cc(-c3cncc4[nH]ncc34)n2)C1 (stereo not drawn)	< 1
CC(=O)N1CCCC(c2nc(Nc3cccc(F)c3)cc(-c3cncc(N4CCNCC4)c3)n2)C1 (stereo not drawn)	> 10
CC(=O)N1CCN(c2cncc(-c3cc(Nc4cccc(F)c4)nc(C4CCCN(C(C)=O)C4)n3)c2)CC1 (stereo not drawn)	1 to 10
CC(=O)N1CCCC(c2nc(Nc3cccc(F)c3)cc(-c3cncc4[nH]ccc34)n2)C1 (stereo not drawn) [drawing 556]	< 1
CC(=O)N1CC(c2cc(Nc3cccc(F)c3)cc(-c3cccnc3)n2)CCC1C (stereo not drawn) [drawing 689]	> 10
CC(=O)N1CC(c2cc(Nc3cccc(F)c3)cc(-c3cccnc3)n2)CCC1C (stereo not drawn) [drawing 690]	1 to 10
CC(=O)N1CC(F)CC(c2nc(Nc3cccc(F)c3)cc(-c3cccnc3)n2)C1 (stereo not drawn) [drawing 703]	1 to 10
CC(=O)N1CCC(C)C(c2nc(Nc3cccc(F)c3)cc(-c3cccnc3)n2)C1 (stereo not drawn) [drawing 719]	1 to 10

biological target: T1, TRIM33(PHD, Bromo.) (Homo sapiens, UniProt Q9UPN9); test: BromoKdMAX (BROMOscan) TRIM33(PHD, Bromo.); format: binding; conditions: TRIM33(PHD, Bromo.) (Entrez TRIM33)
T1 construct: TRIM33(PHD, Bromo.)
T1 sequence (Q9UPN9 1-1127): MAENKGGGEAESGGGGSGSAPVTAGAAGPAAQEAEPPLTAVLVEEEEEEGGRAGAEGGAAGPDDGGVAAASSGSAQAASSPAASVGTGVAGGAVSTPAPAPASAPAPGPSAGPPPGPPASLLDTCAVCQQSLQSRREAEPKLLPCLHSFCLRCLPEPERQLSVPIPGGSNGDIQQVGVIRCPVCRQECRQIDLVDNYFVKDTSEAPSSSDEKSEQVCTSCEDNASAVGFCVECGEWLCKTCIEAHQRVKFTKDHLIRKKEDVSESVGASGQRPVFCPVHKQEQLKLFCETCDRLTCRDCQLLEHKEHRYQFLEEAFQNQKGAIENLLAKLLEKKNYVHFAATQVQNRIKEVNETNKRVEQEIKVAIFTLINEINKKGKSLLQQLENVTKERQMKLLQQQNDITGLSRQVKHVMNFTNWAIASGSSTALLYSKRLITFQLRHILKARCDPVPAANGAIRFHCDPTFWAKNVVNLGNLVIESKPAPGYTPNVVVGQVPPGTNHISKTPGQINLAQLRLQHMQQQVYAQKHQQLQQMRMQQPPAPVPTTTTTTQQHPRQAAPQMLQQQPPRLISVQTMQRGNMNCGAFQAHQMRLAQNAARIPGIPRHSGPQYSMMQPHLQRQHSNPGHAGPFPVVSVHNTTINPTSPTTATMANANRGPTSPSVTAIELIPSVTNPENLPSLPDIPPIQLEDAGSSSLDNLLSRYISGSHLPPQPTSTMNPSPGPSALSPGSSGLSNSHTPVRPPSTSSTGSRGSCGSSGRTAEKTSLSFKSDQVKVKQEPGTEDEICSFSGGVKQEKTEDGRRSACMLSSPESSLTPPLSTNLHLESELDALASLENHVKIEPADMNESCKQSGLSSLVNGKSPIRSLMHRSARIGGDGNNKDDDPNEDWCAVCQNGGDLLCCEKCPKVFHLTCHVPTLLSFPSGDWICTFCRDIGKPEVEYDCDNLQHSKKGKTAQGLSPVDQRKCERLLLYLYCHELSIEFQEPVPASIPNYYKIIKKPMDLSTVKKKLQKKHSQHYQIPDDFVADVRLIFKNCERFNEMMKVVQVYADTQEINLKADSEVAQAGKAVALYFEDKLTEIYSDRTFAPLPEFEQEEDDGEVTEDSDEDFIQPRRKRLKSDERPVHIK
Protocol: A BromoKdMAX was performed at DiscoverX.
BROMOscan™ is a novel industry leading platform for identifying small molecule bromodomain inhibitors. Based on proven KINOMEscan™ technology, BROMOscan™ employs a proprietary ligand binding site-directed competition assay to quantitatively measure interactions between test compounds and bromodomains. This robust and reliable assay panel is suitable for high throughput screening and delivers quantitative ligand binding data to facilitate the identification and optimization of potent and selective small molecule bromodomain inhibitors.
For the Bromodomain assays, T7 phage strains displaying bromodomains were grown in parallel in 24-well blocks in an E. coli host derived from the BL21 strain. E. coli were grown to log-phase and infected with T7 phage from a frozen stock (multiplicity of infection=0.4) and incubated with shaking at 32° C. until lysis (90-150 minutes). The lysates were centrifuged (5,000×g) and filtered (0.2 μm) to remove cell debris. […] The liganded beads were blocked with excess biotin and washed with blocking buffer (SeaBlock (Pierce), 1% BSA, 0.05% Tween 20, 1 mM DTT) to remove unbound ligand and to reduce non-specific phage binding. […] Kds were determined using an 11-point 3-fold compound dilution series with one DMSO control point. […] The bromodomain concentration in the eluates was measured by qPCR.

Compound	Kd [µM]
COc1cncc(-c2cc(Nc3cccc(F)c3)nc([C@@H]3CC[C@H](C)N(C(C)=O)C3)n2)c1 [Compound 00212, (−)-1-((2S,5R)-5-(4-((3-fluorophenyl)amino)-6-(5-methoxypyridin-3-yl)pyrimidin-2-yl)-2-methylpiperidin-1-yl)ethan-1-one]	> 10
